Assay [1] has as its system IL-1β release from peripheral blood mononuclear cells. Kind of assay: IL-1β release from LPS-treated PBMC. It is filed as cell-based. As to the method: Peripheral blood mononuclear cells (PBMC) from healthy donors were isolated by Ficoll-Paque gradient centrifugation from buffy coats obtained from the National Blood Transfusion Service (Bristol, UK). For IL-1β release, 5 × 10^5 cells/ml were then stimulated with 50 ng/ml lipopolysaccharide (LPS) from Escherichia coli (Sigma-Aldrich Ltd., Poole, UK) in the presence or absence of VX-166 and incubated for 18 hours. Secretion of IL-1β into the supernatant was determined by ELISA (R&D Systems, Abingdon, UK) following the manufacturer's instructions. For IL-18 release, 7.5 × 10^5 cells/ml were stimulated with 6.25 × 10^-4% (w/v) Staphylococcus aureus cell suspension (SAC; Sigma-Aldrich Ltd., Poole, UK) in the presence or absence of VX-166 and incubated overnight. The IL-18 content in the supernatants was quantified by ELISA (Caltag-MedSystems Ltd., Buckingham, UK) following the manufacturer's instructions. In both assays PBMC viability was assessed after the 18 hours incubation time using MTS assay (Promega UK Ltd., Southampton, UK) to ensure that the reduction in cytokine release was not caused by a cytotoxic effect of the compound.

A further assay deals with T1, caspase-4 (Homo sapiens, UniProt P49662).
T1 construct: Active recombinant caspase-1, -3, -4, -7 and -8 were prepared as described previously; made in house
Kind of assay: Caspase inhibition assay, second-order inactivation rate. The format is biochemical. The settings on record: recombinant caspase-4, 37°C, n = 4; read-out: Second order inactivation rate constant K. As to the method:
(§1) Active recombinant caspase-1, -3, -4, -7 and -8 were prepared as described previously. Caspase-2 was purchased from Biomol (Exeter, UK), caspase-6 from BD Biosciences (Oxford, UK), caspase-9 from Europa Bioproducts Ltd. (Cambridge, UK) and caspase-10 from Chemicon International Inc. (Harrow, UK). Cathepsin B and granzyme B were purchased from Merck Biosciences Ltd. (Nottingham, UK). Fluorogenic protease substrates were purchased from Bachem Ltd. (St. Helens, UK). All reactions were carried out at 37°C using a Molecular Devices (Wokingham, UK) Gemini plate-reader at 460 nm (excitation wavelength of 390 nm). Caspase inhibition assays were conducted, with minor modifications, as described by Margolin and colleagues. Irreversible kinetics were analysed by calculations of second-order inactivation rate constants (k) using GraphPad (La Jolla, CA, USA) Prism 4.0 software. A larger number for an inactivation rate constant indicates a greater degree of inactivation. To determine the inhibitory effect on cathepsin B, 4.25 nM of the enzyme were added to 250 μM z-RR-AMC in 10 mM 2-morpholino-ethanesulfonic acid pH 6.0, 1 mM DTT, 1 mM EDTA and 0.03% Brij35 in the presence or absence of VX-166 and the reaction monitored continuously over 15 minutes. Granzyme B was assayed, with minor modifications, as described by Thornberry and colleagues. Additional counterscreening against a panel of 83 additional enzymes, ion channels and receptors was carried out at MDS Pharma Services (Bothell, WA, USA).

The target in a further assay is T2, caspase-9 (Homo sapiens, UniProt P55211).
T2 construct: purchased Europa Bioproducts Ltd. (Cambridge, UK)
The description is as above. The settings on record: recombinant caspase-9, 37°C, n = 4; read-out: Second order inactivation rate constant K. The format is biochemical. As to the method:
as §1

Another assay addresses T3, caspase-10 (Homo sapiens, UniProt Q92851).
T3 construct: purchased Chemicon International Inc. (Harrow, UK)
Described as above. The format is biochemical. Particulars: recombinant caspase-10, 37°C, n = 4; read-out: Second order inactivation rate constant K. How it is done:
as §1

In the next assay the target is T4, caspase-8 (Homo sapiens, UniProt Q14790).
T4 construct: Active recombinant caspase-1, -3, -4, -7 and -8 were prepared as described previously; made in house
Described as above. The format is biochemical. The settings on record: recombinant caspase-8, 37°C, n = 4; read-out: Second order inactivation rate constant K. How it is done:
as §1

For a further assay, the target named is T5, caspase-7 (Homo sapiens, UniProt P55210).
T5 construct: Active recombinant caspase-1, -3, -4, -7 and -8 were prepared as described previously; made in house
The assay is described as above. The format is biochemical. The settings on record: recombinant caspase-7, 37°C, n = 4; read-out: Second order inactivation rate constant K. How it is done:
as §1

Another assay has as its target T6, caspase-2 (Homo sapiens, UniProt P42575).
T6 construct: purchased Biomol (Exeter, UK)
The description is as above. It is filed as biochemical. How it is done:
as §1

The next assay addresses T7, caspase-3 (Homo sapiens, UniProt P42574).
T7 construct: Active recombinant caspase-1, -3, -4, -7 and -8 were prepared as described previously; made in house
The assay is described as above. The format is biochemical. As to the method: as §1

A further assay deals with T8, caspase-6 (Homo sapiens, UniProt P55212).
T8 construct: purchased BD Biosciences (Oxford, UK)
The assay is described as above. It is filed as biochemical. The settings on record: recombinant caspase-6, 37°C, n = 4; read-out: Second order inactivation rate constant K. How it is done:
as §1

A further assay has as its target T9, caspase-1 (Homo sapiens, UniProt P29466).
T9 construct: Active recombinant caspase-1, -3, -4, -7 and -8 were prepared as described previously; made in house
The assay is described as above. The format is biochemical. The settings on record: caspase-1, text; read-out: second order inactivation rate constant (k). How it is done: as §1

Assay [2] can be described thus: Counterscreening panel (MDS Pharma Services). The settings on record: 5 μM, data not shown. How it is done: as §1, with “Additional counterscreening against a panel of 83 additional enzymes, ion channels and receptors was carried out at MDS Pharma Services (Bothell, WA, USA).” left out
On the technique in general: A counterscreen serves to expose hits that act by an unwanted route or on another target.

In assay [3] the test system is human aorta endothelial cells (HAEC). Kind of assay: Apoptosis assay in human aorta endothelial cells, serum withdrawal, DNA fragmentation. The format is cell-based. Particulars: Endothelial cell, Serum withdrawal and nutrient deprivation, 48 hours, n = 4, read-out: IC50, inhibition of apoptosis. As to the method:
Human aorta endothelial cells (HAEC) were purchased from Cambrex Bio Science Wokingham Ltd., (Wokingham, UK) and cultured as recommended by the supplier. Apoptosis was induced in 5 × 10^4 cells/ml by addition of medium deprived of serum and growth factors. VX-166 was added at a range of concentrations as described above and the cells incubated for 48 hours at 37°C in an atmosphere of 5% CO2/95% humidity. Apoptosis was measured using a Cell Death Detection ELISA kit (Roche Diagnostics Ltd., Lewes, UK) following the manufacturer's instructions.

Where [4] appears, read: read-out: Second order inactivation rate constant K.

Read-outs that look alike come from different tables or passages of the source. Where only a bound is given, the exact number is not on record here.

The term IC50 denotes the midpoint of a concentration-inhibition curve.

T6 sequence (P42575 whole entry): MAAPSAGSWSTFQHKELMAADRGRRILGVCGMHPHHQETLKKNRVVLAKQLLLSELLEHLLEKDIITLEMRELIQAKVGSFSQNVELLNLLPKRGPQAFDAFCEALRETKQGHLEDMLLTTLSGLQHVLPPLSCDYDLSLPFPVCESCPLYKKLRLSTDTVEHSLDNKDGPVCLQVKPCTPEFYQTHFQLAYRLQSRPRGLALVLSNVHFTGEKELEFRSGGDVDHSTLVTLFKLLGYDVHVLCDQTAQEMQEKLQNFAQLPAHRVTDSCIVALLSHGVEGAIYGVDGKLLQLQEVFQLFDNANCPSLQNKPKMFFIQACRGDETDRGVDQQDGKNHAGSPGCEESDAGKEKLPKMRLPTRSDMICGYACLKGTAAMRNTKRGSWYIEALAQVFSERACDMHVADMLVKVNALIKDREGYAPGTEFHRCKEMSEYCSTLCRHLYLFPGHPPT
T7 sequence (P42574 29-175 limits assumed): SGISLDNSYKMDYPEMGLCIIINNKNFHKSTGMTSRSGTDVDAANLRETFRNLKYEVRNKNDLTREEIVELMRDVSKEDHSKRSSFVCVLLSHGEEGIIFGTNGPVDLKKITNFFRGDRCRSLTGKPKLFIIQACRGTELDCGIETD
T7 sequence (P42574 176-277 limits assumed): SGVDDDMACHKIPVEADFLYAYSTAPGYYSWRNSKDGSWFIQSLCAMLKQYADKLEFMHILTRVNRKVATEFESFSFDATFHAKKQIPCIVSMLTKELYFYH
T9 sequence (P29466 120-297 limits assumed): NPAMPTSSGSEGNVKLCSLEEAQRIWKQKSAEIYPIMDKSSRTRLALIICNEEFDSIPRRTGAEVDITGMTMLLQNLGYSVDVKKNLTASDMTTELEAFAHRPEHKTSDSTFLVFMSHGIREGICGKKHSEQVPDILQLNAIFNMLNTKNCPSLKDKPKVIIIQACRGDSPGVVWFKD
T9 sequence (P29466 317-404 limits assumed): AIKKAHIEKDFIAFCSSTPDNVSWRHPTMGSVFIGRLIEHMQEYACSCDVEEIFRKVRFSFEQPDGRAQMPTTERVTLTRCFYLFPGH
T4 sequence (Q14790 217-374 limits assumed): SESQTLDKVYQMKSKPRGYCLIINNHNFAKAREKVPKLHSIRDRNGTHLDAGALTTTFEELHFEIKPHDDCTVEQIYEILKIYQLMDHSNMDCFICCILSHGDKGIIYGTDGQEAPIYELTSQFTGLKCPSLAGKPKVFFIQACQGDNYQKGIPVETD
T4 sequence (Q14790 385-479 limits assumed): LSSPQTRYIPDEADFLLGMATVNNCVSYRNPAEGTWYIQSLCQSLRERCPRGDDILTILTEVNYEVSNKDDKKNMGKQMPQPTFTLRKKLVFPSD
T8 sequence (P55212 24-293): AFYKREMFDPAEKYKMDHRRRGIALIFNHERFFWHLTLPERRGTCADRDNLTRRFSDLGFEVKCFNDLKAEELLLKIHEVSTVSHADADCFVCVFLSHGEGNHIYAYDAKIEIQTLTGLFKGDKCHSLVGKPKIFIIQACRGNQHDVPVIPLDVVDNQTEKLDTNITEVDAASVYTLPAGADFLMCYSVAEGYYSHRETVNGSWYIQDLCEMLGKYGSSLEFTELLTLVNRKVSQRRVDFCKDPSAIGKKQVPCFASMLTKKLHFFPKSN
T2 sequence (P55211 whole entry): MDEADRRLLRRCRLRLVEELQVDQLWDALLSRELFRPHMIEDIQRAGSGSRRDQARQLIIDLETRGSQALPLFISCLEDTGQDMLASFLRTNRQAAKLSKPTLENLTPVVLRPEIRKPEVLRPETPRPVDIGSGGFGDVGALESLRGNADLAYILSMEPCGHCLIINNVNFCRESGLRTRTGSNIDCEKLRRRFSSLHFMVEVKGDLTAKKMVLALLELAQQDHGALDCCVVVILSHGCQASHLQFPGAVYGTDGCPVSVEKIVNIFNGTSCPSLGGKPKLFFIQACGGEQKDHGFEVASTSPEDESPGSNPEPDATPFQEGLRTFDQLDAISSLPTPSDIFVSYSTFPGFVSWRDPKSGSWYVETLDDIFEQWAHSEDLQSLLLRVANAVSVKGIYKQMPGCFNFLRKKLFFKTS
T3 sequence (Q92851 220-521): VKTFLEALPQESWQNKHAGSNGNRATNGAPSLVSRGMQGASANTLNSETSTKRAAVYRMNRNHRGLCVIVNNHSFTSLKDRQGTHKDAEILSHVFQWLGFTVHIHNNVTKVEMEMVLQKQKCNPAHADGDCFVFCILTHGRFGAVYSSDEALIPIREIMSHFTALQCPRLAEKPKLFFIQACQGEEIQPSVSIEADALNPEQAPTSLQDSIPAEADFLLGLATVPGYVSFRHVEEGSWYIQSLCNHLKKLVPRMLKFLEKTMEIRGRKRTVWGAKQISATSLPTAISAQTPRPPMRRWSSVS
T1 sequence (P49662 81-270 limits assumed): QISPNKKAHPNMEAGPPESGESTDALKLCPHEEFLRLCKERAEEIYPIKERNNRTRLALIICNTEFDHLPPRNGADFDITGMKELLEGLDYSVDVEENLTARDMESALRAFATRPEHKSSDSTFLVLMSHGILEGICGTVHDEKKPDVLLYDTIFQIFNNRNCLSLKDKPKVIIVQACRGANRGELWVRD
T1 sequence (P49662 290-377 limits assumed): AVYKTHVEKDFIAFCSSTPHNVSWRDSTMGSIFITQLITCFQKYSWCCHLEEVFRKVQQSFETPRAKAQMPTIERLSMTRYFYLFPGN
T5 sequence (P55210 24-198 limits assumed): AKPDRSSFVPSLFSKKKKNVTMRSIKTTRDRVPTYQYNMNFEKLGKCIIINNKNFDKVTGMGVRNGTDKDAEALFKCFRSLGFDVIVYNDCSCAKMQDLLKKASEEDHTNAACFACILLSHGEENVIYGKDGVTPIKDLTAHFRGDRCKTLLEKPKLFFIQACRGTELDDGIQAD
T5 sequence (P55210 207-303 limits assumed): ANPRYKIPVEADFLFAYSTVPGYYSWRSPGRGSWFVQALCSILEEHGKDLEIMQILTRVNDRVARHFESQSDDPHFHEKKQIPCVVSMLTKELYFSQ

For `CCC(C(=O)NC(CC(=O)O)C(=O)COc1c(F)c(F)cc(F)c1F)n1cccc(NC(=O)OC)c1=O` (stereo not drawn) [VX-166], the 50% inhibitory concentration (IC50) is less than 0.5 µM in assay [1] (Homo sapiens, PBMC, 18 h, n = 4, read-out: IC50 ± SD, inhibition of IL-1β release); 0.26 ± 0.12 µM in assay [1] (LPS-treated human PBMC, 18 hours, n = 4, read-out: IC50 ± SD, inhibition of IL-1β release); 0.31 ± 0.07 µM in [3]. The kinact/KI at caspase-4 worked out at 480000 ± 32000 M⁻¹ s⁻¹; on caspase-9, 131000 ± 21000 M⁻¹ s⁻¹; at caspase-10, 49000 ± 3800 M⁻¹ s⁻¹; on caspase-8, 194000 ± 52000 M⁻¹ s⁻¹; at caspase-7 it was 526000 ± 1500 M⁻¹ s⁻¹; on caspase-2 (caspase-2, text, read-out: second order inactivation rate constant (k)), 6000 M⁻¹ s⁻¹. The kinact/KI on caspase-2 (setting [4]) was 6190 ± 510 M⁻¹ s⁻¹; at caspase-3 (caspase-3, text, read-out: second order inactivation rate constant (k)), more than 1e+06 M⁻¹ s⁻¹; on caspase-3 (setting [4]) it was 1.17e+06 ± 183000 M⁻¹ s⁻¹; on caspase-6, 77000 ± 3000 M⁻¹ s⁻¹; at caspase-1 it was more than 1e+06 M⁻¹ s⁻¹. Also, in [2], the “cross-reactivity in panel of 83 enzymes, ion channels and receptors (28 proteases)” value was “No significant cross-reactivity”.

Source of the values: article PMC2784364, “VX-166: a novel potent small molecule caspase inhibitor as a potential therapy for sepsis” (Critical Care, 2009).
